Converted amounts (≈) assume the structure as drawn.
Tests used:
Format in all cases: functional
[1] = system: Mycobacterium tuberculosis; test: Antimycobacterial activity against Mycobacterium tuberculosis H37Rv ATCC 27294 by MABA method
Escherichia coli [2] = test: Antibacterial activity against Escherichia coli ATCC 25922 after 18 to 24 hrs by standard twofold serial dilution method
Escherichia coli [3] = test: Antibacterial activity against Escherichia coli 12-1 after 18 to 24 hrs by standard twofold serial dilution method
Escherichia coli [4] = test: Antibacterial activity against extended-spectrum beta-lactamase producing Escherichia coli 12-2 after 18 to 24 hrs by standard twofold serial dilution method
Escherichia coli [5] = test: Antibacterial activity against extended-spectrum beta-lactamase producing Escherichia coli 12-3 after 18 to 24 hrs by standard twofold serial dilution method
Escherichia coli [6] = test: Antibacterial activity against extended-spectrum beta-lactamase producing Escherichia coli 12-14 after 18 to 24 hrs by standard twofold serial dilution method
Escherichia coli [7] = test: Antibacterial activity against extended-spectrum beta-lactamase producing Escherichia coli 12-15 after 18 to 24 hrs by standard twofold serial dilution method
Klebsiella pneumoniae [8] = test: Antibacterial activity against Klebsiella pneumoniae 12-1 after 18 to 24 hrs by standard twofold serial dilution method
Klebsiella pneumoniae [9] = test: Antibacterial activity against Klebsiella pneumoniae 12-2 after 18 to 24 hrs by standard twofold serial dilution method
Klebsiella pneumoniae [10] = test: Antibacterial activity against Klebsiella pneumoniae 12-4 after 18 to 24 hrs by standard twofold serial dilution method
Klebsiella pneumoniae [11] = test: Antibacterial activity against extended-spectrum beta-lactamase producin Klebsiella pneumoniae 12-3 after 18 to 24 hrs by standard twofold serial dilution method
Klebsiella pneumoniae [12] = test: Antibacterial activity against extended-spectrum beta-lactamase producin Klebsiella pneumoniae 12-4 after 18 to 24 hrs by standard twofold serial dilution method
Klebsiella pneumoniae [13] = test: Antibacterial activity against extended-spectrum beta-lactamase producin Klebsiella pneumoniae 12-7 after 18 to 24 hrs by standard twofold serial dilution method
Klebsiella pneumoniae [14] = test: Antibacterial activity against extended-spectrum beta-lactamase producin Klebsiella pneumoniae 12-14 after 18 to 24 hrs by standard twofold serial dilution method
Pseudomonas aeruginosa [15] = test: Antibacterial activity against Pseudomonas aeruginosa 12-12 after 18 to 24 hrs by standard twofold serial dilution method
Pseudomonas aeruginosa [16] = test: Antibacterial activity against Pseudomonas aeruginosa 12-14 after 18 to 24 hrs by standard twofold serial dilution method
Staphylococcus aureus [17] = test: Antibacterial activity against Staphylococcus aureus ATCC 25923 after 18 to 24 hrs by standard twofold serial dilution method
Staphylococcus aureus [18] = test: Antibacterial activity against methicillin-sensitive Staphylococcus aureus 12-1 after 18 to 24 hrs by standard twofold serial dilution method
Staphylococcus aureus [19] = test: Antibacterial activity against methicillin-sensitive Staphylococcus aureus 12-2 after 18 to 24 hrs by standard twofold serial dilution method
Staphylococcus aureus [20] = test: Antibacterial activity against methicillin-sensitive Staphylococcus aureus 12-4 after 18 to 24 hrs by standard twofold serial dilution method
Staphylococcus aureus [21] = test: Antibacterial activity against methicillin-sensitive Staphylococcus aureus 12-5 after 18 to 24 hrs by standard twofold serial dilution method
Staphylococcus aureus [22] = test: Antibacterial activity against methicillin-resistant Staphylococcus aureus 12-2 after 18 to 24 hrs by standard twofold serial dilution method
Staphylococcus aureus [23] = test: Antibacterial activity against methicillin-resistant Staphylococcus aureus 12-4 after 18 to 24 hrs by standard twofold serial dilution method
Staphylococcus aureus [24] = test: Antibacterial activity against methicillin-resistant Staphylococcus aureus 12-5 after 18 to 24 hrs by standard twofold serial dilution method
[25] = system: Staphylococcus epidermidis; test: Antibacterial activity against methicillin-sensitive Staphylococcus epidermidis 12-1 after 18 to 24 hrs by standard twofold serial dilution method
[26] = system: Staphylococcus epidermidis; test: Antibacterial activity against methicillin-sensitive Staphylococcus epidermidis 12-3 after 18 to 24 hrs by standard twofold serial dilution method
[27] = system: Staphylococcus epidermidis; test: Antibacterial activity against methicillin-sensitive Staphylococcus epidermidis 12-6 after 18 to 24 hrs by standard twofold serial dilution method
[28] = system: Staphylococcus epidermidis; test: Antibacterial activity against methicillin-sensitive Staphylococcus epidermidis 12-8 after 18 to 24 hrs by standard twofold serial dilution method
[29] = system: Staphylococcus epidermidis; test: Antibacterial activity against methicillin-resistant Staphylococcus epidermidis 12-1 after 18 to 24 hrs by standard twofold serial dilution method
[30] = system: Staphylococcus epidermidis; test: Antibacterial activity against methicillin-resistant Staphylococcus epidermidis 12-6 after 18 to 24 hrs by standard twofold serial dilution method
Streptococcus pneumoniae [31] = test: Antibacterial activity against Streptococcus pneumoniae ATCC 49619 after 18 to 24 hrs by standard twofold serial dilution method
Streptococcus pneumoniae [32] = test: Antibacterial activity against Streptococcus pneumoniae 12-18 after 18 to 24 hrs by standard twofold serial dilution method

Row | Structure (SMILES) | MIC [1] | MIC (Escherichia coli [2]) | MIC (Escherichia coli [3]) | MIC (Escherichia coli [4]) | MIC (Escherichia coli [5]) | MIC (Escherichia coli [6]) | MIC (Escherichia coli [7]) | MIC (Klebsiella pneumoniae [8]) | MIC (Klebsiella pneumoniae [9]) | MIC (Klebsiella pneumoniae [10]) | MIC (Klebsiella pneumoniae [11]) | MIC (Klebsiella pneumoniae [12]) | MIC (Klebsiella pneumoniae [13]) | MIC (Klebsiella pneumoniae [14]) | MIC (Pseudomonas aeruginosa [15]) | MIC (Pseudomonas aeruginosa [16]) | MIC (Staphylococcus aureus [17]) | MIC (Staphylococcus aureus [18]) | MIC (Staphylococcus aureus [19]) | MIC (Staphylococcus aureus [20]) | other results
1 | CO/N=C1/CN(c2nc3c(cc2F)c(=O)c(C(=O)O)cn3[C@@H]2C[C@@H]2F)[C@H]1CN | 1 µg/mL (≈ 2.54 µM) | 0.06 µg/mL (≈ 0.153 µM) | 1 µg/mL (≈ 2.54 µM) | 128 µg/mL (≈ 325 µM) | 16 µg/mL (≈ 40.7 µM) | 128 µg/mL (≈ 325 µM) | > 128 µg/mL | 0.25 µg/mL (≈ 0.636 µM) | 0.25 µg/mL (≈ 0.636 µM) | 0.25 µg/mL (≈ 0.636 µM) | 64 µg/mL (≈ 163 µM) | 8 µg/mL (≈ 20.3 µM) | 2 µg/mL (≈ 5.08 µM) | 128 µg/mL (≈ 325 µM) | 2 µg/mL (≈ 5.08 µM) | 32 µg/mL (≈ 81.4 µM) | 0.125 µg/mL (≈ 0.318 µM) | 0.06 µg/mL (≈ 0.153 µM) | 0.06 µg/mL (≈ 0.153 µM) | 0.03 µg/mL (≈ 0.0763 µM) | MIC (Staphylococcus aureus [21]): 0.06 µg/mL (≈ 0.153 µM); MIC (Staphylococcus aureus [22]): 32 µg/mL (≈ 81.4 µM); MIC (Staphylococcus aureus [23]): 32 µg/mL (≈ 81.4 µM); MIC (Staphylococcus aureus [24]): 32 µg/mL (≈ 81.4 µM); MIC [25]: 0.06 µg/mL (≈ 0.153 µM); MIC [26]: 0.5 µg/mL (≈ 1.27 µM); MIC [27]: 0.06 µg/mL (≈ 0.153 µM); MIC [28]: 2 µg/mL (≈ 5.08 µM); MIC [29]: 4 µg/mL (≈ 10.2 µM); MIC [30]: 4 µg/mL (≈ 10.2 µM); MIC (Streptococcus pneumoniae [31]): 0.5 µg/mL (≈ 1.27 µM); MIC (Streptococcus pneumoniae [32]): 2 µg/mL (≈ 5.08 µM)
2 | CO/N=C1/CN(c2nc3c(cc2F)c(=O)c(C(=O)O)cn3[C@@H]2C[C@@H]2F)CC1CN (stereo partly specified) | 0.5 µg/mL (≈ 1.23 µM) | 0.06 µg/mL (≈ 0.147 µM) | 0.5 µg/mL (≈ 1.23 µM) | 128 µg/mL (≈ 314 µM) | 32 µg/mL (≈ 78.6 µM) | 64 µg/mL (≈ 157 µM) | > 128 µg/mL | 0.25 µg/mL (≈ 0.614 µM) | 0.25 µg/mL (≈ 0.614 µM) | 0.25 µg/mL (≈ 0.614 µM) | 32 µg/mL (≈ 78.6 µM) | 0.5 µg/mL (≈ 1.23 µM) | 2 µg/mL (≈ 4.91 µM) | 64 µg/mL (≈ 157 µM) | 0.5 µg/mL (≈ 1.23 µM) | 8 µg/mL (≈ 19.6 µM) | 0.015 µg/mL (≈ 0.0368 µM) | 0.125 µg/mL (≈ 0.307 µM) | 0.125 µg/mL (≈ 0.307 µM) | 0.06 µg/mL (≈ 0.147 µM) | MIC (Staphylococcus aureus [21]): 0.125 µg/mL (≈ 0.307 µM); MIC (Staphylococcus aureus [22]): 16 µg/mL (≈ 39.3 µM); MIC (Staphylococcus aureus [23]): 32 µg/mL (≈ 78.6 µM); MIC (Staphylococcus aureus [24]): 16 µg/mL (≈ 39.3 µM); MIC [25]: 0.125 µg/mL (≈ 0.307 µM); MIC [26]: 0.5 µg/mL (≈ 1.23 µM); MIC [27]: 0.125 µg/mL (≈ 0.307 µM); MIC [28]: 1 µg/mL (≈ 2.45 µM); MIC [29]: 4 µg/mL (≈ 9.82 µM); MIC [30]: 4 µg/mL (≈ 9.82 µM); MIC (Streptococcus pneumoniae [31]): 0.125 µg/mL (≈ 0.307 µM); MIC (Streptococcus pneumoniae [32]): 0.25 µg/mL (≈ 0.614 µM)
3 | CO/N=C1/CN(c2cc3c(cc2F)c(=O)c(C(=O)O)cn3[C@@H]2C[C@@H]2F)CC1CN (stereo partly specified) | 1 µg/mL (≈ 2.46 µM) | 0.03 µg/mL (≈ 0.0738 µM) | 0.25 µg/mL (≈ 0.615 µM) | 128 µg/mL (≈ 315 µM) | 32 µg/mL (≈ 78.7 µM) | 32 µg/mL (≈ 78.7 µM) | 128 µg/mL (≈ 315 µM) | 0.25 µg/mL (≈ 0.615 µM) | 0.25 µg/mL (≈ 0.615 µM) | 0.25 µg/mL (≈ 0.615 µM) | 32 µg/mL (≈ 78.7 µM) | 16 µg/mL (≈ 39.4 µM) | 1 µg/mL (≈ 2.46 µM) | 64 µg/mL (≈ 157 µM) | 2 µg/mL (≈ 4.92 µM) | 2 µg/mL (≈ 4.92 µM) | < 0.008 µg/mL | 0.125 µg/mL (≈ 0.308 µM) | 0.125 µg/mL (≈ 0.308 µM) | 0.06 µg/mL (≈ 0.148 µM) | MIC (Staphylococcus aureus [21]): 0.125 µg/mL (≈ 0.308 µM); MIC (Staphylococcus aureus [22]): 16 µg/mL (≈ 39.4 µM); MIC (Staphylococcus aureus [23]): 4 µg/mL (≈ 9.84 µM); MIC (Staphylococcus aureus [24]): 8 µg/mL (≈ 19.7 µM); MIC [25]: 0.06 µg/mL (≈ 0.148 µM); MIC [26]: 0.06 µg/mL (≈ 0.148 µM); MIC [27]: 0.125 µg/mL (≈ 0.308 µM); MIC [28]: 0.25 µg/mL (≈ 0.615 µM); MIC [29]: 2 µg/mL (≈ 4.92 µM); MIC [30]: 0.125 µg/mL (≈ 0.308 µM); MIC (Streptococcus pneumoniae [31]): 0.03 µg/mL (≈ 0.0738 µM); MIC (Streptococcus pneumoniae [32]): 0.25 µg/mL (≈ 0.615 µM)

Source: ChEMBL document CHEMBL3352227, “Synthesis, antimycobacterial and antibacterial evaluation of l-[(1R, 2S)-2-fluorocyclopropyl]fluoroquinolone derivatives containing an oxime functional moiety” (Eur J Med Chem, 2014)
